Measured values as given in US20250066350A1, “AROMATIC HETEROCYCLE-SUBSTITUTED COMPOUNDS, AND PREPARATION METHOD THEREFOR AND USE THEREOF” (Innovstone Therapeutics Limited, priority 2021, published 2025).
Like-named read-outs stand apart in the source and are kept apart here. Blank lines part the entries; values can stand above or below the compound they belong to.

Tests used:
LoVo cells = experiment: LoVo cell proliferation experiment (CellTiter-Glo, intracellular ATP); format: cell-based; settings: LoVo human colon cancer cells, 4 days, read-out: IC50 for inhibition of LoVo cell proliferation
Protocol: The following method is used to evaluate the inhibitory effect of the compounds of the present invention on LoVo cell proliferation according to the IC50 values by means of detecting the intracellular ATP content. The experimental method is briefly described as follows:
1. LoVo, human colon cancer tumor cells (Co-bioer, CBP60032)
LoVo cells were cultured in F-12K medium containing 10% FBS and passaged 2 to 3 times a week at a split ratio of 1:3 or 1:5. During passage, the cells were trypsinized and transferred to a centrifuge tube. The tube was centrifuged at 1000 rpm for 5 minutes, the supernatant medium was discarded, and fresh medium was added to resuspend the cells. 100 μL of cell suspension at a density of 1.5×10^4 cells/mL was added to a 96-well cell culture plate, and 100 μL of complete medium only was added to the periphery wells of the 96-well plate. The culture plate was incubated in an incubator for 24 hours (37° C., 5% CO2).
The sample to be tested was diluted to 1 mM with DMSO, diluted 3-fold serially to 8 concentrations, and prepared to 200× dilution with cell culture medium. Blank and control wells were set. 5 μL of the solution containing the compound to be tested prepared in gradient concentrations was added to 95 μL of fresh medium. 100 μL of 1× culture medium containing the compound was added to the culture plate. The culture plate was incubated in an incubator for 4 days (37° C., 5% CO2). 50 μL of CellTiter-Glo reagent was added to each well of the 96-well cell culture plate, and the plate was placed at room temperature in the dark for 5-10 min. The chemiluminescent signal values were read in PHERAstar, and data were processed using GraphPad software.
The inhibitory effect of the compounds of the present invention on LoVo cell proliferation can be determined by the test described above, and the measured IC50 values are shown in Table 2.

SNU-601 cells = experiment: SNU-601 cell proliferation experiment (CellTiter-Glo, intracellular ATP); format: cell-based; settings: SNU-601 human gastric cancer cells, 5 days, read-out: IC50 for inhibition of SNU-601 cell proliferation
Method in brief: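 Human gastric cancer cells in RPMI 1640/10% FBS plated and settled 24 h before adding compounds in a 10-point 3-fold series (2 mM DMSO top stock). Exposure 5 days at 37 °C, 5% CO2. Viability by CellTiter-Glo luminescence (ATP); IC50 from the curves.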

ATR enzyme = ATR enzyme (Homo sapiens (Human), UniProt Q13535); experiment: Inhibitory effect on ATR enzyme (HTRF, phospho-P53); format: biochemical; settings: 90 minutes incubation, 150 nM ATP final; read-out: IC50 for ATR enzyme inhibition
Method in brief: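 Recombinant ATR phosphorylating GST-tagged P53 with 150 nM ATP final (40 nM final P53), 10-point compound series from 2985.0 to 0.15 nM, 0.498% DMSO, 90 min at room temperature. Detection with anti-phospho-p53-Eu/anti-GST-d2 overnight at 4° C in dark; HTRF 665/612 ratio used to derive IC50.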

Chain of ATR enzyme (Q13535 whole entry): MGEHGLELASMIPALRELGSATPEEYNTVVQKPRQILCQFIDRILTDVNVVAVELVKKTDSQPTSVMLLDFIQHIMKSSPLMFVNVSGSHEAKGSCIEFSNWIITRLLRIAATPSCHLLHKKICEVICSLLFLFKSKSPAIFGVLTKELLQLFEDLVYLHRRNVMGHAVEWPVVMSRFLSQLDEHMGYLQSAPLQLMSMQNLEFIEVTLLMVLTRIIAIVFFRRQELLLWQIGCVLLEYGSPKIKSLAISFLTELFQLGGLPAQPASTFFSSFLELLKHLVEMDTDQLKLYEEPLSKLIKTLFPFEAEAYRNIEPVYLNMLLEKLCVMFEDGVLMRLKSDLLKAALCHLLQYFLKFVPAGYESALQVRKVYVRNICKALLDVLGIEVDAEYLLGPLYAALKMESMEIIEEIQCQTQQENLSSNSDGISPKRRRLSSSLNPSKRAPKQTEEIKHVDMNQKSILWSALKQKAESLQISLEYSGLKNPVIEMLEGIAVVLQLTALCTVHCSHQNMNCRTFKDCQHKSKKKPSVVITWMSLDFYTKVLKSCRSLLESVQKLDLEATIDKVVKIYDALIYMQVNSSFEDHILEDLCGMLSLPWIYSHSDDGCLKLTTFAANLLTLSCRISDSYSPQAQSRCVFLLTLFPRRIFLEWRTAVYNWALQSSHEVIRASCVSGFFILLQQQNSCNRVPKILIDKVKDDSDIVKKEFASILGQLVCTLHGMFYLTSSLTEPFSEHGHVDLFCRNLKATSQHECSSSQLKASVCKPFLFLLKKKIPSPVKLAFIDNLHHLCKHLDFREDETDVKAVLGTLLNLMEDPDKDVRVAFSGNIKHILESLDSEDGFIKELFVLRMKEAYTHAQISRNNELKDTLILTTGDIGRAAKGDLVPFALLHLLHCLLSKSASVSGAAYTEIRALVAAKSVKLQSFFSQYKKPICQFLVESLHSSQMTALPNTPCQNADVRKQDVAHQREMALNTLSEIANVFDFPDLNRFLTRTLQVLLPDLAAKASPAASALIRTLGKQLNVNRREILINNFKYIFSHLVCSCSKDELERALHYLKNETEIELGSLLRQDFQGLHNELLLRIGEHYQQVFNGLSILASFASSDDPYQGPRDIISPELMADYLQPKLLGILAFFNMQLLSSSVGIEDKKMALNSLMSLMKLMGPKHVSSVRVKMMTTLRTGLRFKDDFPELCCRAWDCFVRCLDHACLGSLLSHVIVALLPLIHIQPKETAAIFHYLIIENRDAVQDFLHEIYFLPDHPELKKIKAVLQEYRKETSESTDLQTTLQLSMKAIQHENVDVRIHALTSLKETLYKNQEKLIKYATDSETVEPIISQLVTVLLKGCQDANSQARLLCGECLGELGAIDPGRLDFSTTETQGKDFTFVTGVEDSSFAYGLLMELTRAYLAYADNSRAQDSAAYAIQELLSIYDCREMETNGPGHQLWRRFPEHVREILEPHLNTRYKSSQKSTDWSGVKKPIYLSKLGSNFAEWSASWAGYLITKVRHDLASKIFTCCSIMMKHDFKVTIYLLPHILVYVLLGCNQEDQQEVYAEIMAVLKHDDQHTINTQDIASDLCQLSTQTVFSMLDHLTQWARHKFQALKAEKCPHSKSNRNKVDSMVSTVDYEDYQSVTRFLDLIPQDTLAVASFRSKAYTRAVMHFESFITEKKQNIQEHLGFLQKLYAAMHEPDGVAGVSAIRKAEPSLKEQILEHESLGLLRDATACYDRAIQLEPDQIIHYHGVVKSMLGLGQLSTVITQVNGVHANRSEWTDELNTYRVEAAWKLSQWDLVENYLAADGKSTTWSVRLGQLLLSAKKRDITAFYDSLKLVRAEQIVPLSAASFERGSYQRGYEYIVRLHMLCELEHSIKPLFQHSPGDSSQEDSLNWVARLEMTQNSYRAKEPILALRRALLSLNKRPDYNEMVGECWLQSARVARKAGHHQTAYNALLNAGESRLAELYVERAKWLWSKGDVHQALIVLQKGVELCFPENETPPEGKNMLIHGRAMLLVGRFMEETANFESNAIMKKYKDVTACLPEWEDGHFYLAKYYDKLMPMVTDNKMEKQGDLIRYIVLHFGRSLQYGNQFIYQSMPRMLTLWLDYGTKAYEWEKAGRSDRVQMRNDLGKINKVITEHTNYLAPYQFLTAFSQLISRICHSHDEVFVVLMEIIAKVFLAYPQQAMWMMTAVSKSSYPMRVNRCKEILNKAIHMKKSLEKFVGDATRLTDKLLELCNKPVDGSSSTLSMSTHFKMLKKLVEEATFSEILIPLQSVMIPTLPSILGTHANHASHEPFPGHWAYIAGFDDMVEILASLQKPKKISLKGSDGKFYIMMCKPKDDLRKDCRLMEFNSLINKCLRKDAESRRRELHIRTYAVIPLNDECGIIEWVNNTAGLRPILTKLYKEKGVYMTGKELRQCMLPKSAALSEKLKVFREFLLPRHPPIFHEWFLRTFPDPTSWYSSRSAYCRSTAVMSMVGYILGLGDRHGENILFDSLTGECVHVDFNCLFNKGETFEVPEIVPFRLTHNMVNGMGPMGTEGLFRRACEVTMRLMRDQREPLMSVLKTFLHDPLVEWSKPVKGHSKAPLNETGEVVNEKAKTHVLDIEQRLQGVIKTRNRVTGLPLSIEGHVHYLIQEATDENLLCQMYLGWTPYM
Chain of ATR enzyme (Q8WXE1 whole entry partner): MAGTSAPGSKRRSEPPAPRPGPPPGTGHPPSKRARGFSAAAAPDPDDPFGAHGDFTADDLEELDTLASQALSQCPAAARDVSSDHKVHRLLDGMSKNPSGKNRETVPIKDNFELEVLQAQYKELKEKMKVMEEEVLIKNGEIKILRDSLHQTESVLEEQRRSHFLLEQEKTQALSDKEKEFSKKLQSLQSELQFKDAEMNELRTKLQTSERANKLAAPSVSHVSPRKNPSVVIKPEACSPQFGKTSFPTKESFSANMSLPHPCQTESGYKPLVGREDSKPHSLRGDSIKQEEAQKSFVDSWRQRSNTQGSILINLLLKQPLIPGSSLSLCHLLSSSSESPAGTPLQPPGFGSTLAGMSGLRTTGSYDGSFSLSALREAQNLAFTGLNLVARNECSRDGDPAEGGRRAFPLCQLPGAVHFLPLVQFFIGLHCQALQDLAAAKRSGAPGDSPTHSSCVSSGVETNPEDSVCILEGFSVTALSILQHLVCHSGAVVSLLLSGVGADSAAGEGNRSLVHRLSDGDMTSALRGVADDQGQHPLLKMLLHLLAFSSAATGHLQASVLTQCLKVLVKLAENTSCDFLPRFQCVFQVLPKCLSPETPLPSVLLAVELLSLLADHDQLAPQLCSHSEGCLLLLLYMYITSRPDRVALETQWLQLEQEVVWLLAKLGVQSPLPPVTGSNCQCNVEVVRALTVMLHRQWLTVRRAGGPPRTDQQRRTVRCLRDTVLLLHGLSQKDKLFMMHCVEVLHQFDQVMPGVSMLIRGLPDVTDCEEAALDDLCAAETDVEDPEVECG

Compound: C[C@@H]1COCCN1c1cc(C2(O)CCC3(CC2)CO3)c2cnn(-c3cc[nH]n3)c2n1 (stereo partly drawn) [Compound 2, (R)-6-(6-(3-methylmorpholinyl)-1-(1H-pyrazol-3-yl)-1H-pyrazole[3,4-b]pyridin-4-yl)-1-oxaspiro[2.5]octan-6-ol]
IC50 (LoVo cells; 96 h): 20 to 100 nM

Compound: COCC#Cc1cc(N2CCOC[C@H]2C)nc2c1cnn2-c1cc[nH]n1 [Compound 5, (R)-4-(4-(3-methoxypropyl-1-alkynyl)-1-(1H-pyrazol-3-yl)-1H-pyrazole[3,4-b]pyridin-6-yl)-3-methylmorpholine]
IC50 (LoVo cells; 96 h): ≤ 20 nM

Compound: C[C@@H]1COCCN1c1cc(-c2ccc(N3CCCCC3=O)cc2)c2cnn(-c3cc[nH]n3)c2n1 [Compound 7, (R)-1-(4-(6-(3-methylmorpholinyl)-1-(1H-pyrazolyl-3-yl)-1H-pyrazolyl[3,4-b]pyridin-4-yl)phenyl)piperidin-2-one]
IC50 (LoVo cells; 96 h): 20 to 100 nM
IC50 (SNU-601 cells; 120 h): 10 to 100 nM

Compound: C[C@@H]1COCCN1c1cc(C2CCCOC2)c2cnn(-c3cc[nH]n3)c2n1 (stereo partly drawn) [Compound 13, (3R)-4-(1-(1H-pyrazol-3-yl)-4-(tetrahydro-2H-pyran-3-yl)-1H-pyrazole[3,4-b]pyridin-6-yl)-3-methylmorpholine]
IC50 (LoVo cells; 96 h): 20 to 100 nM

Compound: C[C@@H]1COCCN1c1cc(-c2ccc(NC(=O)c3cccc(S(C)(=O)=O)c3)cc2)c2cnn(-c3cc[nH]n3)c2n1 [Example 145]
IC50 (LoVo cells; 96 h): 20 to 100 nM
IC50 (SNU-601 cells; 120 h): 10 to 100 nM

Compound: C#CC1CCC(O)(c2cc(N3CCOC[C@H]3C)nc3c2cnn3-c2cc[nH]n2)CC1 (stereo partly drawn) [Example 147, (R)-4-ethynyl-1-(6-(3-methylmorpholinyl)-1-(1H-pyrazolyl-3-yl)-1H-pyrazolyl[3,4-b]pyridin-4-yl)cyclohexanol]
IC50 (ATR enzyme): ≤ 10 nM
IC50 (LoVo cells; 96 h): ≤ 20 nM
IC50 (SNU-601 cells; 120 h): ≤ 10 nM

Compound: C[C@@H]1COCCN1c1cc(-c2ccc(NC(=O)c3ccncc3)cc2)c2cnn(-c3cc[nH]n3)c2n1 [Example 148]
IC50 (ATR enzyme): ≤ 10 nM
IC50 (LoVo cells): 20 to 100 nM
IC50 (SNU-601 cells): 10 to 100 nM

Compound: C[C@@H]1COCCN1c1cc(-c2ccc(NC(=O)c3cocn3)cc2)c2cnn(-c3cc[nH]n3)c2n1 [Example 164]
IC50 (ATR enzyme): ≤ 10 nM
IC50 (LoVo cells): 20 to 100 nM
IC50 (SNU-601 cells): 10 to 100 nM

Second part, the compound after the results:

IC50 (LoVo cells; 96 h): 20 to 100 nM
IC50 (SNU-601 cells; 120 h): 10 to 100 nM
Compound: C[C@@H]1COCCN1c1cc(-c2ccc(N3CCCCCC3=O)cc2F)c2cnn(-c3cc[nH]n3)c2n1 [Example 197]

IC50 (ATR enzyme): ≤ 10 nM
IC50 (LoVo cells; 96 h): 20 to 100 nM
IC50 (SNU-601 cells; 120 h): ≤ 10 nM
Compound: C[C@@H]1COCCN1c1cc(-c2ccc(NC(=O)N3CCCC3)c(C#N)c2)c2cnn(-c3cc[nH]n3)c2n1 [Example 228]

IC50 (ATR enzyme): ≤ 10 nM
IC50 (LoVo cells; 96 h): 20 to 100 nM
IC50 (SNU-601 cells; 120 h): 10 to 100 nM
Compound: C[C@@H]1COCCN1c1cc(-c2ccc(NC(=O)c3cocn3)cc2F)c2cnn(-c3cc[nH]n3)c2n1 [Example 235]

IC50 (ATR enzyme): ≤ 10 nM
IC50 (LoVo cells; 96 h): 20 to 100 nM
IC50 (SNU-601 cells; 120 h): 10 to 100 nM
Compound: C[C@@H]1COCCN1c1cc(-c2ccc(N3CCCCS3(=O)=O)cc2F)c2cnn(-c3cc[nH]n3)c2n1 [Example 239]

IC50 (ATR enzyme): ≤ 10 nM
IC50 (LoVo cells; 96 h): 20 to 100 nM
IC50 (SNU-601 cells; 120 h): 10 to 100 nM
Compound: C[C@@H]1COCCN1c1cc(-c2c(F)cc(N3CC4CCC(O4)C3=O)cc2F)c2cnn(-c3cc[nH]n3)c2n1 (stereo partly drawn) [Example 261]

IC50 (ATR enzyme): ≤ 10 nM
IC50 (LoVo cells; 96 h): 20 to 100 nM
IC50 (SNU-601 cells; 120 h): 10 to 100 nM
Compound: C[C@@H]1COCCN1c1cc(C2(O)CCC(C#N)CC2)c2cnn(-c3cc[nH]n3)c2n1 (stereo partly drawn) [RP103, reference compound]

IC50 (ATR enzyme): ≤ 10 nM
IC50 (LoVo cells; 96 h): 20 to 100 nM
IC50 (SNU-601 cells; 120 h): 10 to 100 nM
Compound: C[C@@H]1COCCN1c1cc([C@]2(O)C[C@H]3CC[C@@H](C2)O3)c2cnn(-c3ccn[nH]3)c2n1 [RP3500, reference compound]
